Test results: US5780441A, “Sphingoglycolipid compounds and therapeutic uses thereof” (Kirin Beer Kabushiki Kaisha, priority 1993, dated 1998)

Columns and labels:
[1] = test system: P388 mouse leukemia cells; assay: Life-span-prolonging (anti-tumor) effect on mice subcutaneously inoculated with P388 mouse leukemia cells; type: in vivo, mouse (CDF1 female); settings: 0.1 mg/kg i.v. on days 1, 5 and 9; for Survival days ave. ± s. d.: all marked ** (p < 0.01); for response vs control in vivo at 0.1 mg/kg: Mus musculus, P388, iv, read-out: T/C (%)
Protocol: i) Anti-tumor effect of the compound of the present invention on mice subcutaneously inoculated with P388 mouse leukemia cells.
Experiment was performed with CDF1 female mice (6 weeks) purchased from NIPPON SLC K.K., which were divided into groups consisting of 5 animals. […]. In this connection, lentinan and picibanil were administered intravenously on days 1, 3, 5, 7 and 9 after implantation, and sizofilan was administered subcutaneously on days 1 through 9. Statistical analysis was performed according to the Mann-Whiteney test.

B16 mouse melanoma cells = assay: Tumor growth inhibition in mice subcutaneously inoculated with B16 mouse melanoma cells; type: in vivo, mouse (BDF1 female); settings: 0.1 mg/kg i.v. days 1, 5, 9; maximum during 20 days
Protocol: ii) Anti-tumor effect of the compound according to the present invention on mice subcutaneously inoculated with B16 mouse melanoma cells.
Experiment was performed with BDF1 female mice (6 weeks) purchased from NIPPON SLC K.K., which were divided into groups consisting of 6 animals. […]. The subcutaneous tumor volumes [(length×width×height)/2] were measured on days 8, 12, 16 and 20 after implantation to determine the tumor growth inhibiting rate (TGIR) of each sample. TGIR was calculated from the following formula: […]
wherein C: tumor volume in the control group, and
T: tumor volume in the sample adminitered groups.
In this connection, Compounds 1-6 and 7-9 were tested in the same time, respectively.

mouse bone marrow cells = assay: In vitro mouse bone marrow cell-proliferation-promoting effect (3H-TdR uptake); type: cell-based, mouse (BDF1 female); settings: 4 days; for activity at 0.1 µg/mL / activity at 0.01 µg/mL: Mus musculus, Bone marrow cell, 96 h, read-out: Uptake of 3H-TdR (% of control), bone marrow cells; for Uptake of 3H-TdR (% of control), bone marrow cells: 5760 min
Protocol: In vitro mouse bone marrow cell-proliferation-promoting effect of the present compound
Experiment was performed with BDF1 female mice (6 weeks old) purchased from NIPPON SLC K.K. Bone marrow cells were removed from the femoral bone of mice by the conventional manner, floated on 10% FCS RPMI 1640, layered over Lympholite M, and centrifuged to give a monocyte fraction. 1×10^6 cells/ml of the monocyte fraction was suspended in 10% FCS RPMI 1640. The cell suspension (100 μl/well) and a vehicle or sample (10 μl/well) which was prepared so as to have a final level shown in Table 2 were added into a wells of round-bottomed 96 well plate, and cultured under the condition of 5% CO2 at 37° C. for 4 days. 0.5 μCi/well of ^3 H-thymidine (^3 H-TdR) was added. After 6 hours, the cells were harvested, and the amount of ^3 H-TdR uptaken into nucleus was measured by a liquid scintillation counter. The ratio of the uptake of ^3 H-TdR in the sample group to that in the vehicle group was calculated and used as the activation rate for promoting in vitro mouse bone marrow cell growth.

mouse splenic lymphocyte = assay: In vitro mouse splenic lymphocyte-proliferation-stimulating effect (3H-TdR uptake); type: cell-based, mouse (BDF1 female); settings: 2 days; for activity at 1 µg/mL / activity at 0.1 µg/mL / activity at 0.01 µg/mL / activity at 0.001 µg/mL: Mus musculus, Splenic lymphocyte, 48 h, read-out: Uptake of 3H-TdR (% of control), splenic lymphocytes; for activity at 0.1 µg/mL: 10^-1 μg/ml; for activity at 0.01 µg/mL: 10^-2 μg/ml; for Uptake of 3H-TdR (% of control), splenic lymphocytes: 2880 min
Protocol: i) In vitro mouse splenic lymphocyte growth promoting effects of the present compounds
Experiment was performed with BDF1 female mice (6 weeks old) purchased from NIPPON SLC K.K. Spleens were removed from mice, and spleen cells were brayed with slide glasses and hemolized with NH4 Cl. 2×10^6cells/ml of the spleen cells which had been hemolized were suspended in 10% FCS RPMI 1640. The cell suspension (100 μl/well) and a vehicle or sample (10 μl/well) which was prepared so as to have a final level shown in Table 3 were added into wells of a round-bottomed 96 well plate, and cultured under the condition of 5% CO2 at 37° C. for 2 days. 0.5 μCi/well of ^3 H-thymidine (^3 H-TdR) was added. After 6 hours, the cells were harvested, and the amount of ^3 H-TdR uptaken into nucleus was measured by a liquid scintillation counter. The ratio (%) of the uptake of ^3 H-TdR in the sample group to that in the vehicle group was calculated and used as the in vitro mouse splenic lymphocyte-proliferation-stimulating rate.

[2] = test system: mixed lymphocyte culture reaction (spleen cells of C57BL/6 and BALB/C mice); assay: Mixed lymphocyte culture reaction (MLR); type: cell-based, mouse (C57BL/6 stimulator, BALB/C responder); settings: 42 hours; for activity at 1 µg/mL / activity at 0.1 µg/mL: Mus musculus, Lymphocyte, read-out: MLR activating rate (%); for MLR activating rate (%): 2520 min
Protocol: ii) Mixed lymphocyte culture reaction (MLR) of the compounds of the present invention
Spleen cells were prepared from C57BL/6 mice and treated with 50 μg/ml of mitomycin C for 30 minutes. The treated cells were used as stimulator cells, and the spleen cells of BALB/C mice as responder cells. 2×10^6 cells/ml of the both spleen cells were suspended in 10% FCS RPMI1640 as a culture medium. The above-described cells (50 μl/well) and a sample (10 μl/well) were added into wells of a round-bottomed 96 well plate, and cultured under the condition of 5% CO2 at 37° C. for 42 hours. 0.5 μCi/well of ^3 H-thymidine (^3 H-TdR) was added. After 8 hours, the cells were harvested, and the amount of uptaken ^3 H-TdR was measured by a liquid scintillation counter to calculate the ratio (%) of the uptake of ^3 H-TdR in the sample group to that in the vehicle group as the MLR activating rate.

lethally irradiated mice = assay: Radioprotective effect: life-span prolongation of lethally irradiated mice; type: in vivo, mouse (BDF1 female); settings: 0.1 mg/kg i.v. days 0, 4, 8, 9 Gy X-ray, groups of 10
Protocol: Life-span-prolonging effects of the present compounds on lethally irradiated mice.
Experiment was performed with BDF1 female mice (6 weeks old) purchased from NIPPON SLC K.K., which were divided into groups consisting of 10 animals. Mice were irradiated generally with 9 Gy of X-ray with an X-ray generating apparatus, Hitachi, MBR-1520R (radiation day: day 0). Samples at a dose of 0.1 mg/kg were administered into tail vein on days 0, 4 and 8 in order to observe the mortality of the animals for 40 days.
In the table, two experiments are separated by the broken line.

CCCCCCCCCCCCCCCCCCCCCC[C@@H](O)C(=O)N[C@@H](CO[C@H]1O[C@H](CO)[C@H](O)[C@H](O[C@H]2O[C@H](CO)[C@H](O)[C@H](O)[C@H]2NC(C)=O)[C@H]1O[C@H]1O[C@H](CO)[C@@H](O)[C@H](O)[C@H]1O)[C@H](O)[C@H](O)CCCCCCCCCCCCC [Compound 2, O-(N-acetyl-2-amino-2-deoxy-α-D-galactopyranosyl)-(1→3)-O-[α-D-glucopyranosyl-(1→2)]-O-α-D-galactopyranosyl-(1→1)-(2S,3S,4R)-2-amino-N-[(R)-2-hydroxytetracosanoyl]-1,3,4-heptadecanetriol]
Survival days ave. ± s. d. [1]: 15.8 ± 0.5 days | response vs control in vivo at 0.1 mg/kg ([1]; survival vs vehicle): 123% | Maximum tumor growth inhibiting rate, TGIR (%) (B16 mouse melanoma cells): 82.6% | activity at 0.1 µg/mL (mouse bone marrow cells; 10^-1 μg/ml): 268% | activity at 0.01 µg/mL (mouse bone marrow cells; 10^-2 μg/ml): 276% | activity at 1 µg/mL (mouse splenic lymphocyte; 10^0 μg/ml): 890% | activity at 0.1 µg/mL (mouse splenic lymphocyte): 735% | activity at 0.01 µg/mL (mouse splenic lymphocyte): 508% | activity at 0.001 µg/mL (mouse splenic lymphocyte; 10^-3 μg/ml): 270% | activity at 1 µg/mL ([2]; 1 × 10^0 μg/ml): 213% | activity at 0.1 µg/mL ([2]; 1 × 10^-1 μg/ml): 158% | Number of surviving mice (lethally irradiated mice; day 10): 10 mice | Number of surviving mice (lethally irradiated mice; day 15): 10 mice | Number of surviving mice (lethally irradiated mice; day 20): 10 mice | Number of surviving mice (lethally irradiated mice; day 25): 9 mice | Number of surviving mice (lethally irradiated mice; day 30): 9 mice | Number of surviving mice (lethally irradiated mice; day 35): 9 mice | Number of surviving mice (lethally irradiated mice; day 40): 9 mice

CCCCCCCCCCCCCCCCCCCCCC[C@@H](O)C(=O)N[C@@H](CO[C@H]1O[C@H](CO)[C@H](O)[C@H](O[C@H]2O[C@H](CO)[C@H](O)[C@H](O)[C@H]2NC(C)=O)[C@H]1O[C@H]1O[C@H](CO)[C@@H](O)[C@H](O)[C@H]1O)[C@H](O)[C@H](O)CCCCCCCCCCCC [Compound 1, O-(N-acetyl-2-amino-2-deoxy-α-D-galactopyranosyl)-(1→3)-O-[α-D-glucopyranosyl-(1→2)]-O-α-D-galactopyranosyl-(1→1)-(2S,3S,4R)-2-amino-N-[(R)-2-hydroxytetracosanoyl]-1,3,4-hexadecanetriol]
Survival days ave. ± s. d. [1]: 15.3 ± 0.8 days | response vs control in vivo at 0.1 mg/kg ([1]; survival vs vehicle): 120% | activity at 0.1 µg/mL (mouse bone marrow cells; 10^-1 μg/ml): 211% | activity at 0.01 µg/mL (mouse bone marrow cells; 10^-2 μg/ml): 133% | activity at 1 µg/mL (mouse splenic lymphocyte; 10^0 μg/ml): 843% | activity at 0.1 µg/mL (mouse splenic lymphocyte): 738% | activity at 0.01 µg/mL (mouse splenic lymphocyte): 332% | activity at 0.001 µg/mL (mouse splenic lymphocyte; 10^-3 μg/ml): 184% | activity at 1 µg/mL ([2]; 1 × 10^0 μg/ml): 222% | activity at 0.1 µg/mL ([2]; 1 × 10^-1 μg/ml): 142% | Number of surviving mice (lethally irradiated mice; day 10): 10 mice | Number of surviving mice (lethally irradiated mice; day 15): 9 mice | Number of surviving mice (lethally irradiated mice; day 20): 7 mice | Number of surviving mice (lethally irradiated mice; day 25): 6 mice | Number of surviving mice (lethally irradiated mice; day 30): 6 mice | Number of surviving mice (lethally irradiated mice; day 35): 6 mice | Number of surviving mice (lethally irradiated mice; day 40): 6 mice

CCCCCCCCCCCCCCCCCCCCCC[C@@H](O)C(=O)N[C@@H](CO[C@H]1O[C@H](CO)[C@H](O)[C@H](O[C@H]2O[C@H](CO)[C@H](O)[C@H](O)[C@H]2NC(C)=O)[C@H]1O[C@H]1O[C@H](CO)[C@@H](O)[C@H](O)[C@H]1O)[C@H](O)[C@H](O)CCCCCCCCCCCCCC [Compound 8, O-(N-acetyl-2-amino-2-deoxy-α-D-galactopyranosyl)-(1→3)-O-[α-D-glucopyranosyl-(1→2)]-O-α-D-galactopyranosyl-(1→1)-(2S,3S,4R)-2-amino-N-[(R)-2-hydroxytetracosanoyl]-1,3,4-octadecanetriol]
Survival days ave. ± s. d. [1]: 16.0 ± 0.7 days | T/C (%) ([1]; survival vs vehicle): 125% | Maximum tumor growth inhibiting rate, TGIR (%) (B16 mouse melanoma cells): 78.4% | Uptake of 3H-TdR (% of control), bone marrow cells (mouse bone marrow cells; 10^-1 μg/ml): 240 % of control | Uptake of 3H-TdR (% of control), bone marrow cells (mouse bone marrow cells; 10^-2 μg/ml): 167 % of control | Uptake of 3H-TdR (% of control), splenic lymphocytes (mouse splenic lymphocyte; 10^0 μg/ml): 997 % of control | Uptake of 3H-TdR (% of control), splenic lymphocytes (mouse splenic lymphocyte; 10^-3 μg/ml): 609 % of control | MLR activating rate (%) ([2]; 1 × 10^0 μg/ml): 286% | MLR activating rate (%) ([2]; 1 × 10^-1 μg/ml): 232%

CCCCCCCCCCCCCCCCCCCCCC[C@@H](O)C(=O)N[C@@H](CO[C@H]1O[C@H](CO)[C@H](O)[C@H](O[C@@H]2O[C@@H]([C@H](O)CO)[C@H](O)[C@H]2O)[C@H]1O)[C@H](O)[C@H](O)CCCCCCCCCCCC(C)C [Compound 15, O-β-D-galactofuranosyl-(1→3)-O-α-D-galactopyranosyl-(1→1)-(2S,3S,4R)-2-amino-N-[(R)-2-hydroxytetracosanoyl]-16-methyl-1,3,4-heptadecanetriol]
Survival days ave. ± s. d. [1]: 14.0 ± 0 days | response vs control in vivo at 0.1 mg/kg ([1]; survival vs vehicle): 109% | activity at 0.1 µg/mL (mouse bone marrow cells; 10^-1 μg/ml): 501% | activity at 0.01 µg/mL (mouse bone marrow cells; 10^-2 μg/ml): 291% | activity at 1 µg/mL (mouse splenic lymphocyte; 10^0 μg/ml): 845% | activity at 0.001 µg/mL (mouse splenic lymphocyte; 10^-3 μg/ml): 394% | activity at 1 µg/mL ([2]; 1 × 10^0 μg/ml): 295% | activity at 0.1 µg/mL ([2]; 1 × 10^-1 μg/ml): 253%
